Measured values published in US20130344166A1, “TOPICAL MIXTURE AND METHOD FOR DERMAL APPLICATION TO REMOVE EXCESS IRON AND OTHER HEAVY METALS FROM CELLULAR TISSUE” (priority 2012, published 2013).

How the values were obtained:
[1] = system: excess Iron within the cells; assay: Tests of trivalent Chromium on excess Iron within the cells of humans; assay type: in vivo; conditions: absorbed into the bloodstream and delivered to the individual cells of humans
Description: Also included in the present invention is trivalent Chromium. As currently contemplated, the Chromium will be in the form of Chromium Picolinate, Chromium Polynicotinate, or Chromium Chloride. The essential element is trivalent Chromium. The choice of Chromium Picolinate, Chromium Polynicotinate, or Chromium Chloride has been made by the inventors because they are readily, commercially available in most health food stores, pharmacies, and other sources of dietary supplements. […] This is a desirable treatment for people suffering from Diabetes and there are currently studies, which indicate that “Iron Loading” can possibly be attached to the occurrence of cancer. A possible alternative or compliment to the Chromium of the present invention is Vanadium in the form of Vanadyl Sulfate. A combination of both Chromium and Vanadium compounds have been utilized in some tests with desirable results.

[2] = Blood sugar level of a patient after application of the topical mixture to the skin; assay type: in vivo, human; conditions: presence of L-Histidine in the mixture
Description: The present invention is best practiced by application of the trivalent Chromium composition at least twice daily. Preferably the application will be made before sleep and early in the morning ideally before exercise. Although the present invention may be applied to the entire body it is recommended it be applied to the legs and groin area where easy access to a large number of blood vessels can be achieved. Additionally, the legs and groin area contained some of the most exercised muscles in the human body. An alternative carrier base can be achieved through infusion of the trivalent Chromium and other elements into a bar of soap so as to achieve even distribution over the entire body. FIGS. 1 and 2 and the charts below show the blood sugar level of a patient utilizing the present invention in accordance with the formulation set above. The blood sugar level can be seen to drop dramatically after application of the present invention to the surface of the skin.

Compound	levels of excess Iron within the cells [1]	levels of blood sugar in patients [2]
trivalent Chromium	reduces the levels of excess Iron within the cells	
N[C@@H](Cc1c[nH]cn1)C(=O)O [L-Histidine]		beneficial to lowering the levels of blood sugar
